From patent US5041567A, “Antibacterial monic acid derivatives” (Beecham Group plc, priority 1982, dated 1991)
≈ marks a conversion by molar mass, not a printed value.

Experiments:
M. suipneumoniae NB12 = test: MIC against mycoplasma in vitro; type: cell-based; settings: M. suipneumoniae NB12; Friis broth, 0.9% agarose, 6 days, 37° C.
M. suipneumoniae JF 435 = test: MIC against mycoplasma in vitro; type: cell-based; settings: M. suipneumoniae JF 435; 6 days, 37° C.
M. suipneumoniae Str. 11 = test: MIC against mycoplasma in vitro; type: cell-based; settings: M. suipneumoniae Str. 11; 6 days, 37° C.
M. suipneumoniae MS 16 = test: MIC against mycoplasma in vitro; type: cell-based; settings: M. suipneumoniae MS 16; 6 days, 37° C.
M. suipneumoniae UCD 1 = test: MIC against mycoplasma in vitro; type: cell-based; settings: M. suipneumoniae UCD 1; 6 days, 37° C.
M. suipneumoniae TAM 6N = test: MIC against mycoplasma in vitro; type: cell-based; settings: M. suipneumoniae TAM 6N; 6 days, 37° C.
[1] = system: M. suipneumoniae ATCC 25095; test: MIC against mycoplasma in vitro; type: cell-based; settings: M. suipneumoniae ATCC 25095; 6 days, 37° C.
[2] = system: M. suipneumoniae NCTC 10110; test: MIC against mycoplasma in vitro; type: cell-based; settings: M. suipneumoniae NCTC 10110; 6 days, 37° C.
M. hyorhinis ATCC 25021 = test: MIC against mycoplasma in vitro; type: cell-based; settings: M. hyorhinis ATCC 25021; 6 days, 37° C.
[3] = system: M. bovigenitalium ATCC 14173; test: MIC against mycoplasma in vitro; type: cell-based; settings: M. bovigenitalium ATCC 14173; 6 days, 37° C.
M. dispar NCTC 10125 = test: MIC against mycoplasma in vitro; type: cell-based; settings: M. dispar NCTC 10125; 6 days, 37° C.
M. gallisepticum S6 = test: MIC against mycoplasma in vitro; type: cell-based; settings: M. gallisepticum S6; 6 days, 37° C.
E. coli NCTC 10418 [4] = test: MIC against human bacteria in vitro; type: cell-based; settings: E. coli NCTC 10418; agar with 5% chocolated horse blood, 18 hours, 37° C.
P. mirabilis 889 = test: MIC against human bacteria in vitro; type: cell-based; settings: P. mirabilis 889; 5% chocolated horse blood agar, 18 hours
[5] = system: Ps. aeruginosa NCTC 10662; test: MIC against human bacteria in vitro; type: cell-based; settings: Ps. aeruginosa NCTC 10662; 5% chocolated horse blood agar, 18 hours
[6] = system: Haemophilus influenzae Wy21; test: MIC against human bacteria in vitro; type: cell-based; settings: Haemophilus influenzae Wy21; 5% chocolated horse blood agar, 18 hours
[7] = system: Neisseria catarrhalis 1502; test: MIC against human bacteria in vitro; type: cell-based; settings: Neisseria catarrhalis 1502; 5% chocolated horse blood agar, 18 hours
[8] = system: Corynebacterium xerosis 9755; test: MIC against human bacteria in vitro; type: cell-based; settings: Corynebacterium xerosis 9755; 5% chocolated horse blood agar, 18 hours
Staph. aureus Oxford = test: MIC against human bacteria in vitro; type: cell-based; settings: Staph. aureus Oxford; 5% chocolated horse blood agar, 18 hours
Staph. aureus Russell = test: MIC against human bacteria in vitro; type: cell-based; settings: Staph. aureus Russell; 5% chocolated horse blood agar, 18 hours
Staph. aureus W2827 = test: MIC against human bacteria in vitro; type: cell-based; settings: Staph. aureus W2827; 5% chocolated horse blood agar, 18 hours
[9] = system: Strep. pyogenes R80/421-A; test: MIC against human bacteria in vitro; type: cell-based; settings: Strep. pyogenes R80/421-A; 5% chocolated horse blood agar, 18 hours
Strep. agalactiae 2788-B = test: MIC against human bacteria in vitro; type: cell-based; settings: Strep. agalactiae 2788-B; 5% chocolated horse blood agar, 18 hours
Strep. pneumoniae CN33 = test: MIC against human bacteria in vitro; type: cell-based; settings: Strep. pneumoniae CN33; 5% chocolated horse blood agar, 18 hours
E. coli NCTC 10418 [10] = test: MIC against veterinary bacteria in vitro; settings: E. coli NCTC 10418; Diagnostic Sensitivity Test Agar, 18 hours, 37° C.
Experimental: (§1) The activity of the compounds of the Examples against various veterinarily important bacteria, was assayed in vitro using two-fold serial dilutions in Diagnostic Sensitivity Test Agar inoculated with 10^4 organisms.

E. coli E1 = test: MIC against veterinary bacteria in vitro; settings: E. coli E1; Diagnostic Sensitivity Test Agar, 18 hours, 37° C.
Experimental: as §1

S. dublin S7 = test: MIC against veterinary bacteria in vitro; settings: S. dublin S7; Diagnostic Sensitivity Test Agar, 18 hours
Experimental: as §1

Past. multocida PA1 = test: MIC against veterinary bacteria in vitro; settings: Past. multocida PA1; Diagnostic Sensitivity Test Agar, 18 hours
Experimental: as §1

Past. multocida PA2 = test: MIC against veterinary bacteria in vitro; settings: Past. multocida PA2; Diagnostic Sensitivity Test Agar, 18 hours
Experimental: as §1

Past. haemolytica PA5 = test: MIC against veterinary bacteria in vitro; settings: Past. haemolytica PA5; Diagnostic Sensitivity Test Agar, 18 hours
Experimental: as §1

[11] = system: Staph. aureus 152 (pen. sens); test: MIC against veterinary bacteria in vitro; settings: Staph. aureus 152 (pen. sens); Diagnostic Sensitivity Test Agar, 18 hours
Experimental: as §1

[12] = system: Strep. suis (group D) SPS11; test: MIC against veterinary bacteria in vitro; settings: Strep. suis (group D) SPS11; Diagnostic Sensitivity Test Agar, 18 hours
Experimental: as §1

Strep. agalactiae SPA1 = test: MIC against veterinary bacteria in vitro; settings: Strep. agalactiae SPA1; Diagnostic Sensitivity Test Agar, 18 hours
Experimental: as §1

CC(=Cc1cc(C)no1)CC1OCC(CC2OC2C(C)C(C)O)C(O)C1O (stereo not drawn) [Example 30, 3-Methyl-5-(1-normon-2-yl) isoxazole A]
MIC (M. suipneumoniae NB12): 5.0 µg/mL (≈ 13.1 µM) | MIC (M. suipneumoniae JF 435): 5.0 µg/mL (≈ 13.1 µM) | MIC (M. suipneumoniae Str. 11): 2.5 µg/mL (≈ 6.55 µM) | MIC (M. suipneumoniae MS 16): 2.5 µg/mL (≈ 6.55 µM) | MIC (M. suipneumoniae UCD 1): 2.5 µg/mL (≈ 6.55 µM) | MIC (M. suipneumoniae TAM 6N): 5.0 µg/mL (≈ 13.1 µM) | MIC [1]: 2.5 µg/mL (≈ 6.55 µM) | MIC [2]: 2.5 µg/mL (≈ 6.55 µM) | MIC (M. hyorhinis ATCC 25021): 0.5 µg/mL (≈ 1.31 µM) | MIC [3]: 0.25 µg/mL (≈ 0.655 µM) | MIC (M. dispar NCTC 10125): 0.25 µg/mL (≈ 0.655 µM) | MIC (M. gallisepticum S6): > 10 µg/mL | MIC (E. coli NCTC 10418 [4]): > 128 µg/mL | MIC (P. mirabilis 889): > 128 µg/mL | MIC [5]: > 128 µg/mL | MIC [6]: < 0.06 µg/mL | MIC [7]: 8.0 µg/mL (≈ 21 µM) | MIC [8]: > 128 µg/mL | MIC (Staph. aureus Oxford): 8.0 µg/mL (≈ 21 µM) | MIC (Staph. aureus Russell): 16 µg/mL (≈ 41.9 µM) | MIC (Staph. aureus W2827): 16 µg/mL (≈ 41.9 µM) | MIC [9]: 32 µg/mL (≈ 83.9 µM) | MIC (Strep. agalactiae 2788-B): 128 µg/mL (≈ 336 µM) | MIC (Strep. pneumoniae CN33): 128 µg/mL (≈ 336 µM) | MIC (E. coli NCTC 10418 [10]): > 80 µg/mL | MIC (E. coli E1): > 80 µg/mL | MIC (S. dublin S7): > 80 µg/mL | MIC (Past. multocida PA1): 2.5 µg/mL (≈ 6.55 µM) | MIC (Past. multocida PA2): 0.312 µg/mL (≈ 0.818 µM) | MIC (Past. haemolytica PA5): 10 µg/mL (≈ 26.2 µM) | MIC [11]: 2.5 µg/mL (≈ 6.55 µM) | MIC [12]: > 80 µg/mL | MIC (Strep. agalactiae SPA1): 40 µg/mL (≈ 105 µM)
